This is an account of results in patent US4075340A, “Thieno [2,3-C] pyridine derivatives and therapeutic composition containing same” (Parcor, priority 1975, dated 1978).

Broadly, the LD50 is the dose at which mortality reaches 50%. A high value points to a less toxic substance.

Structures can show the parent of a compound that is named as a salt. Where two headings read alike, the source gives them in different places.

Data set [1] in a line: acute toxicity, LD50 /24 hrs/kg body weight, intravenous route, method according to Miller and Tainter. Conditions: in vivo.
The subject of data set [2] is ovalbumin-induced systemic edema in rats. The experiment in a line: Ovalbumin-induced Systemic Edema Method. The data set is classed as in vivo. Conditions: Rattus norvegicus, oral 100 mg/kg, 1 hour before and with ovalbumin. How it is done:
b) Ovalbumin-induced Systemic Edema Method
Rats are administered a simultaneous intraperitoneal injection of 1 ml ovalbumin and 0.5 ml of a 1% aqueous Evans Blue solution. The animals of the treated group are additionally administered orally 100 mg/kg of the test derivative, one hour prior to ovalbumin administration and then simultaneously with said ovalbumin administration. The intensity of the phenomenon thus induced is rated according to a scale from 1 to 5, according to the progress of the inflammatory syndrome. The measurements are effected after 2 hours and after 3 hours. Thus are determined the mean intensity of the edema and the percent decrease of the edema reaction.

For data set [3], the system named is carrageenin-induced edema in rats. The experiment in a line: Localized Carrageenin-induced Edema Method. The data set is classed as in vivo. Conditions: Rattus norvegicus, oral 100 mg/kg, repeated (1 hour before, with, 1 and 2.5 hours after carrageenin). How it is done:
a) Localized Carrageenin-induced Edema Method
0.1 ml of a 1% carrageenin solution is injected at time 0 in the metatarsal flexor muscles of the right hind limb of rats. The animals of the treated group are administered orally, additionally, 100 mg/kg of the test derivative, respectively one hour prior to and then simultaneously with the phlogogenic agent, and then one hour and 2.5 hours thereafter. The determinations effected with a ROCH micrometer at times 0, 1 hour, 2 hrs, 3 hrs and 5hrs after carrageenin administration, make it possible to determine the percent anti-inflammatory activity, as a function of time.
For orientation: In the carrageenan paw model, swelling and tenderness develop within hours.

[4] abbreviates: after 2 hours, read-out: Percent decrease (of the edema reaction) after 2 hours.
Where [5] appears, read: after 3 hours, read-out: Percent decrease (of the edema reaction) after 3 hours.
[6] abbreviates: after 1 hour, read-out: Percent anti-inflammatory activity after 1 hour.
Where [7] appears, read: after 2 hours, read-out: Percent anti-inflammatory activity after 2 hours.
Setting [8] is: after 5 hours, read-out: Percent anti-inflammatory activity after 5 hours.

Turning to `Fc1ccccc1CN1CCc2ccsc2C1` [Derivative No. 26, 6-o.fluorobenzyl-4,5,6,7-tetrahydro-thieno[2,3-c]pyridine, fumarate], in data set [1], the LD50 at 24 h was 87 mg/kg.
On the same count and under the same terms, the result for `CC1c2sccc2CCN1CCc1ccccc1` (stereo not drawn) [Derivative No. 31, 7-methyl-6-β-phenethyl-4,5,6,7-tetrahydro-thieno[2,3-c]pyridine, maleate] reads 53 mg/kg.
With `CC(=O)OC(CN1CCc2ccsc2C1)c1ccc(Cl)cc1` (stereo not drawn) [Derivative No. 8, 6-(2-acetoxy-2-p-chlorophenyl-ethyl)-4,5,6,7-tetrahydro-thieno[2,3-c]pyridine], the inhibition in vivo at 100 mg/kg is 45% in data set [2] (setting [4]); 58% in data set [2] (setting [5]); 40% in data set [3] (setting [6]); 49% in data set [3] (setting [7]); 59% in data set [3] (setting [8]).
In the case of `COc1ccc(OC)c(C(O)CN2CCc3ccsc3C2C)c1` (stereo not drawn) [Derivative No. 34, 6-[2-(2,5-dimethoxy-phenyl)-2-hydroxy-ethyl]-7-methyl-4,5,6,7-tetrahydro-thieno[2,3-c]pyridine], the LD50 at 24 h in data set [1] was 84 mg/kg.
In the case of `COc1cccc(C(CN2CCc3ccsc3C2)OC(C)=O)c1` (stereo not drawn) [Derivative No. 10, 6-(2-acetoxy-2m.methoxyphenyl-ethyl)-4,5,6,7-tetrahydro-thieno[2,3-c]pyridine], the 50% lethal dose (LD50) at 24 h in data set [1] was 80 mg/kg.
Same read-out and setting: the result for `COc1ccc(C(=O)C[n+]2ccc3ccsc3c2C)cc1.[Br-]` [Derivative No. 44, 7-methyl-6-p-methoxyphenacyl-thieno[2,3-c]pyridinium bromide] reads 51 mg/kg.
Still for that read-out and setting: for `COc1ccc(OCC(O)CN2CCc3ccsc3C2)cc1` (stereo not drawn) [Derivative No. 35, 6-(2-hydroxy-3-p.methoxyphenoxy-propyl)-4,5,6,7-tetrahydro-thieno[2,3-c]pyridine, hydrochloride] the value was 19 mg/kg; for `Clc1ccc(CN2CCc3ccsc3C2)s1` [Derivative No. 6, 6-[2-(5-chloro-thienyl)-methyl]-4,5,6,7-tetrahydro-thieno[2,3-c]pyridine], 135 mg/kg.
For the molecule `OC(CN1CCc2ccsc2C1)C(Cl)(Cl)Cl` (stereo not drawn) [Derivative No. 37, 6-(2-hydroxy-3,3,3-trichloro-propyl)-4,5,6,7-tetrahydro-thieno[2,3-c]pyridine], in data set [1], the LD50 at 24 h was found to be 18 mg/kg.
The same measure, in the same setting: the result for `Cl.O=[N+]([O-])c1ccccc1CN1CCc2ccsc2C1` [Derivative No. 11, 6-o-nitrobenzyl-4,5,6,7-tetrahydro-thieno[2,3-c]pyridine, hydrochloride] reads 160 mg/kg; that for `COc1ccc(CN2CCc3ccsc3C2)cc1OC.Cl` [Derivative No. 25, 6-(3,4-dimethoxy-benzyl)-4,5,6,7-tetrahydro-thieno[2,3-c]pyridine, hydrochloride], 90 mg/kg.
As to `COc1ccc(CN2CCc3ccsc3C2)c(OC)c1OC` [compound 28], the inhibition in vivo at 100 mg/kg stood at 45% in data set [2] (setting [4]); 63% in data set [2] (setting [5]); 43% in data set [3] (setting [6]); 52% in data set [3] (setting [7]); 61% in data set [3] (setting [8]).
In the case of `CCCCCCCCCCCCN1CCc2ccsc2C1` [Derivative No. 1, 6-n-dodecyl-4,5,6,7-tetrahydro-thieno[2,3-c]pyridine], the inhibition in vivo at 100 mg/kg in data set [2] (setting [4]) is 36%; in data set [2] (setting [5]), 51%; in data set [3] (setting [6]), 38%; in data set [3] (setting [7]) it was 46%; in data set [3] (setting [8]), 54%.
Turning to `COc1cc(CN2CCc3ccsc3C2)cc(OC)c1OC.O=C(O)/C=C\C(=O)O` [Derivative No. 17, 6-(3,4,5-trimethoxy-benzyl)-4,5,6,7-tetrahydro-thieno[2,3-c]pyridine, maleate], the LD50 at 24 h in data set [1] was 80 mg/kg.
Same read-out and setting: the result for `Cl.OC(CN1CCc2ccsc2C1)c1ccccc1` (stereo not drawn) [Derivative No. 23, 6-(2-hydroxy-2-phenyl-ethyl)-4,5,6,7-tetrahydro-thieno[2,3-c]pyridine, hydrochloride] reads 67 mg/kg.
As for `OC(CN1CCc2ccsc2C1)c1ccccc1` (stereo not drawn) [compound 23], the inhibition in vivo at 100 mg/kg in data set [2] (setting [4]) was 50%; in data set [2] (setting [5]), 61%; in data set [3] (setting [6]), 39%; in data set [3] (setting [7]) it was 51%; in data set [3] (setting [8]) it was 58%.
Take `O=C(O)c1ccccc1CN1CCc2ccsc2C1` [Derivative No. 5, 6-o-carboxybenzyl-4,5,6,7-tetrahydro-thieno[2,3-c]pyridine]: the inhibition in vivo at 100 mg/kg in data set [2] (setting [4]) was determined as 42%; in data set [2] (setting [5]), 61%; in data set [3] (setting [6]), 44%; in data set [3] (setting [7]), 52%; in data set [3] (setting [8]), 60%.
Take `CC(=O)CCN1CCc2ccsc2C1.O=C(O)/C=C\C(=O)O` [Derivative No. 36, 6-(3-oxo-butyl)-4,5,6,7-tetrahydro-thieno[2,3-c]-pyridine, maleate]: the LD50 at 24 h in data set [1] is 16 mg/kg.
For `COc1ccc(OC)c(C(O)CN2CCc3ccsc3C2C)c1` (stereo not drawn) [compound 34], the inhibition in vivo at 100 mg/kg amounted to 45% in data set [2] (setting [4]); 61% in data set [2] (setting [5]); 37% in data set [3] (setting [6]); 48% in data set [3] (setting [7]); 58% in data set [3] (setting [8]).
In the case of `COc1ccc(CN2CCc3ccsc3C2)cc1OC` [Derivative No. 38, 6-(3,4-dimethoxy-benzyl)-4,5,6,7-tetrahydro-thieno[2,3-c]pyridine], the LD50 at 24 h in data set [1] was 22 mg/kg.
As for `COc1cccc(C(CN2CCc3ccsc3C2)OC(C)=O)c1` (stereo not drawn) [compound 10], the inhibition in vivo at 100 mg/kg came out at 48% in data set [2] (setting [4]); 55% in data set [2] (setting [5]); 43% in data set [3] (setting [6]); 50% in data set [3] (setting [7]); 56% in data set [3] (setting [8]).
Regarding `Cc1c2sccc2cc[n+]1CC(=O)c1ccccc1.[Br-]` [Derivative No. 39, 7-methyl-6-phenacyl-thieno[2,3-c]pyridinium bromide], in data set [1], the LD50 at 24 h worked out at 35 mg/kg.
Still for that read-out and setting: the result for `c1ccc(CCN2CCc3ccsc3C2)cc1` [Derivative No. 19, 6-β-phenethyl-4,5,6,7-tetrahydro-thieno[2,3-c]pyridine, hydrochloride] reads 48 mg/kg.
As for `COc1ccc(C(O)CN2CCc3ccsc3C2)cc1` (stereo not drawn) [compound 30], the inhibition in vivo at 100 mg/kg in data set [2] (setting [4]) stood at 39%; in data set [2] (setting [5]), 59%; in data set [3] (setting [6]), 38%; in data set [3] (setting [7]) it was 44%; in data set [3] (setting [8]) it was 51%.
`COc1cccc(CN2CCc3ccsc3C2)c1` [Derivative No. 20, 6-m.methoxybenzyl-4,5,6,7-tetrahydro-thieno-[2,3-c]pyridine, hydrochloride] returned an LD50 at 24 h in data set [1] of 63 mg/kg.
